The results in this text go back to patent US6306876A, “4-[aryl(8-azabicyclo[3.2.1]octan-3-yl)]aminobenzoic acid derivatives” (priority 2000, dated 2001).

The test concerns the target T1, delta-opioid receptor (Rattus norvegicus, UniProt P33533).
T1 construct: from tissue; host or cells: forebrain particulate (membrane) preparation of male Wistar rats (animals from Charles River, Kingston, N.Y.)
Briefly: Rat Brain Delta-Opioid Receptor Binding Assay. Also on record: species or system rat (Wistar). To be noted: rat forebrain homogenate, [3H]DPDPE, 25° C., pH 7.4; read-out: Delta K.

Structures are written as SMILES.

T1 sequence (P33533 whole entry): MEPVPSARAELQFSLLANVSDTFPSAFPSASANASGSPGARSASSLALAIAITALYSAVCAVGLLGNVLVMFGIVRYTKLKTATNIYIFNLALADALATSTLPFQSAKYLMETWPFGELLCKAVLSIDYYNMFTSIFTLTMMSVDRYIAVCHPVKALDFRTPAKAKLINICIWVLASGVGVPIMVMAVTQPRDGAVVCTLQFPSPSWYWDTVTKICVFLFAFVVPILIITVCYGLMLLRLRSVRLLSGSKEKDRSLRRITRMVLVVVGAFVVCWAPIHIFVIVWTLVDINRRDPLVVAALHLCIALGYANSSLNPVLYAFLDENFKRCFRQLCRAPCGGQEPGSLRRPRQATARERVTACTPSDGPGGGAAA

In the case of `CN1C2CCC1CC(N(c1ccccc1)c1cccc(C(=O)OC(C)(C)C)c1)C2` (stereo not drawn) [Example 38, 1,1-Dimethylethyl 3-[phenyl(endo-8-methyl-8-azabicyclo[3.2.1]octan-3-yl)amino]benzoate], the Ki turned out to be 459 nM.
